Laboratory results from ChEMBL document CHEMBL3046502, “In vitro antimicrobial and antitubercular studies of novel 6-substituted (pyrrolidin-1-yl)-2(1H)-pyridinones” (2012).
Converted amounts (≈) assume the structure as drawn.

What was measured:
Type in all cases: functional
Candida albicans = assay: Antimicrobial activity against Candida albicans MTCC 227
Staphylococcus aureus = assay: Antimicrobial activity against Staphylococcus aureus MTCC 96 by broth microdilution method
Escherichia coli = assay: Antimicrobial activity against Escherichia coli MTCC 442 by broth microdilution method
Streptococcus pyogenes = assay: Antimicrobial activity against Streptococcus pyogenes MTCC 443 by broth microdilution method
[1] = system: Mycobacterium tuberculosis; assay: Antimicrobial activity against Mycobacterium tuberculosis H37Rv; details: for MIC: Mycobacterium tuberculosis, H37Rv
Aspergillus niger = assay: Antimicrobial activity against Aspergillus niger MTCC 282
Pseudomonas aeruginosa = assay: Antimicrobial activity against Pseudomonas aeruginosa MTCC 2488 by broth microdilution method
Aspergillus clavatus = assay: Antimicrobial activity against Aspergillus clavatus MTCC 1323

Row | SMILES | MIC (Candida albicans) [µg/mL] | MIC (Staphylococcus aureus) [µg/mL] | MIC (Escherichia coli) [µg/mL] | MIC (Streptococcus pyogenes) [µg/mL] | inhibition (INH) [1] [%] | MIC [1] [µg/mL] | MIC (Aspergillus niger) [µg/mL] | MIC (Pseudomonas aeruginosa) [µg/mL] | MIC (Aspergillus clavatus) [µg/mL]
1 | COc1ccc(-c2cc(N3CCCC3)n(-c3cccc(Cl)c3)c(=O)c2/N=N/c2ccc(Cl)c(Cl)c2)cc1 | 100 (≈ 181 µM) | 200 (≈ 361 µM) | 62.5 (≈ 113 µM) | 500 (≈ 903 µM) | 99 | 250 (≈ 451 µM) | 500 (≈ 903 µM) | 200 (≈ 361 µM) | 1000 (≈ 1810 µM)
2 | COc1ccc(-c2cc(N3CCCC3)n(-c3cccc(Cl)c3)c(=O)c2)cc1 | 1000 (≈ 2630 µM) | 500 (≈ 1310 µM) | 250 (≈ 656 µM) | 500 (≈ 1310 µM) | 99 | 500 (≈ 1310 µM) | 1000 (≈ 2630 µM) | 500 (≈ 1310 µM) | 1000 (≈ 2630 µM)
